# Assay results from US5229265A, “Process for analyzing clastogenic agents” (Litron Laboratories, priority 1990, dated 1993).
# Where “and” joins values, the source holds several entries; their conditions need not be identical. Equal values may be shown once. Entries after “also recorded” stand apart in the source; their conditions may differ.
# How the values were obtained:
# [1] = tested on: micronucleated cells in blood; assay: Cyclophosphamide dose response, flow cytometric micronucleus assay; type: in vivo, mouse
# Description: However, an effective flow cytometry based micronulceus assay should also be able to reflect changes in the number of MN-cells at different doses of a clastogen. Accordingly, another example of this embodiment involves a cyclophosphamide dose response analysis. Ten mice were divided into sets of two for this experiment. An initial blood sample was taken (t=0hr) for each mouse. The two control mice were dosed with saline while the other sets received different doses of cyclophosphamide (50,100,150 or 200 μg/g body weight). Each set was treated twice, at t=0 and t=48 hrs. Final blood samples were obtained at t=96hrs, and were fixed and stained with Hoechst 33258 to which PC microspheres had been added. The position of the microsphere peak was initially calibrated using the malaria infected RBCs as the primary standard. Each sample was then checked to insure that the microsphere peak was still at the calibrated position before acquisition. Some slight adjustments were necessary in the gains during the course of the analysis, during which ten t=0 samples and ten t=96 samples were run. One million total cells were counted for each sample. Gates were set on forward scatter (e.g. FIG. 3), side scatter (before the major cell peak), and a red gate (e.g. as shown in FIG. 13). These gates insured that only red blood cells and their associated micronuclei would be acquired. Following acquisition, the number of micronucleated cells at t=0 were subtracted from the number at t=96hr for each mouse. The average for the saline controls were slightly negative, and were recorded as zero in this graph. […] In addition, the high doses were approaching 1500 events more than the zero (control) values. […] For comparison, the 96hr samples were also hand counted and the number of MNs/1000 PCEs were determined.
# [2] = tested on: micronucleated cells in blood; assay: Effects of bleeding on the sensitivity of the micronucleus assay, MMS; type: in vivo, mouse; details: for MNs in 96 hr blood, MMS(D): MMS 100 μg/g body wt at 0 and 48 hrs; for Increase in MNs (D - C): MMS minus saline means
# From the text: Earlier, it was pointed out that obtaining an initial blood sample (t=0) provides an important background measurement of the number of micronucleii in each mouse. Obtaining an initial blood sample also increases the sensitivity of the assay, due to the stimulation of the stem cells to replenish the lost blood. Clastogen action should be increased if cells are actively turning over, rather than subsisting in a quiscent state. In the absence of bleeding, new PCEs are introduced into the blood cells at a low steady state level and MNs are introduced at a spontaneous background level. […] Practioners in the art are unaware of this increase in sensitivity due to initial bleeding. […] In this experiment, control mice were dosed with 0.9% saline, whereas treated mice received MMS (100 μg/g body wt.) at 0 hr and at 48 hrs. The first set of mice (the L series) were not bleed prior to obtaining a 96 hour blood sample. The MN-cell level resulting from MMS treatment would reflect the probability of clastogen action in the steady state stem cell turnover rate. The second set of mice (the M series) were bleed 166 hrs prior to the initial clastogen dose. In this set, the minus 166 hr bleeding will cause stem cell proliferation and differentiation, but the system should begin to return to steady state once the blood is replenished. The third set (the K series) was bleed at t=0hr where upon dosing was initiated, and a final blood sample was obtained at t=96 hrs.
# Since the L series was not initially bleed, the initial blood samples were not used in the analysis of the M or K series for equal comparison with L. Rather, only the 96 hour blood samples were analyzed in each set. The difference, D, between the saline controls and the dosed mice should reflect the level of turnover of the stem cells and the suseptibility of said cells to clastogen action in each case. […] Although the M series had 166 hrs to recover from the initial bleeding before being dosed with MMS, the stem cells still appear to be fairly active, and an intermediate level of micronucleated cells was obtained (i.e. 513 events above background). Finally, the highest activity was obtained with the K-series wherein the mice were bleed and immediately dosed. In this case, the stem cells are turning over at a high rate to replenish the blood at a time when the concentration of MMS is also high. […] The results in Tables 2 and 4 provide additional experimental evidence that bleeding stimulates stem cell proliferation and differentiation. […] This increase in sensitivity could be particularly important in cases where a week clastogen is being investigated.
# [3] = K Series: initial bleeding at t = 0
# [4] = M Series: initial bleeding at -166 hr
SMILES,"dose response ([1]; cyclophosphamide 50, 100, 150 or 200 μg/g body weight at t=0 and t=48 hrs)","clastogenic action at the lower doses ([1]; cyclophosphamide, lower doses, FIG. 14)","increase in MN events over zero (control) values ([1]; high doses of cyclophosphamide (50-200 μg/g body weight tested) at t=0 and t=48 hrs, one million total cells)","MNs in 96 hr blood, MMS(D) [2, 3]","Increase in MNs (D - C) [2, 3]","MNs in 96 hr blood, MMS(D) ([2]; L Series: no initial bleeding)",Increase in MNs (D - C) ([2]; L Series: no initial bleeding),"MNs in 96 hr blood, MMS(D) [2, 4]","Increase in MNs (D - C) [2, 4]"
O=P1(N(CCCl)CCCl)NCCCO1 (stereo not drawn) [cyclophosphamide],dose response relationship is evident; also recorded: good dose response relationship is obtained,data at the lower doses clearly supports the conclusion that clastogenic action was present,~1500 events,,,,,,
"COS(C)(=O)=O [MMS, methyl methanesulfonate]",,,,1829 and 1794 and 1812,777,1352 and 1390 and 1331 and 1357 ± 30,314,1776 and 1541 and 1673 and 1663 ± 118,513
